Experimental data as given in US9957249B2, “Saturated nitrogen and N-acylated heterocycles potentiating the activity of an active antibiotic against Mycobacteria” (Universite de Droit et de la Sante de Lille 2, priority 2012, dated 2018).

Columns and labels:
M. tuberculosis = assay: Potentiation of ethionamide cell test (High Content Screening); format: cell-based; conditions: ligand concentration necessary to potentiate ten times the activity of ethionamide, constant ethionamide 0.1 μg/mL (1/10 of its CMI99), 50% inhibition of bacterial growth
Protocol: Potentiation of Ethionamide Cell Test
The test used made it possible to ascertain that these compounds were capable of potentiating the bactericide activity of ethionamide on M. tuberculosis alone. This test was a “High Content Screening” (HCS) or dense content screening test. HCS tests were performed on cell cultures that enable certain phenotypic features of a microorganism (e.g. a bacterium) in a given environment to be studied. The phenotypic changes observed can range from the increase (or decrease) of the production of certain marked proteins to the modification of the morphology of the microorganism under consideration. The method is described in the following publication: “Ethionamide Boosters: Synthesis, Biological Activity, and Structure-Activity Relationships of a Series of 1,2,4-Oxadiazole EthR Inhibitors”, M. Flipo et al., Journal of Medicinal Chemistry, 2011, 54(8), 2994-3010.
This test aims to determine the ligand concentration necessary to potentiate ten times the activity of ethionamide (ETH).
To measure the ligand concentration necessary for potentiating ten times the activity of ETH, a constant concentration of ethionamide (0.1 μg/mL corresponding to 1/10 of its CMI99) was chosen. By varying the ligand concentration, the concentration necessary to inhibit 50% of the bacterial growth, i.e. the concentration necessary to potentiate ten times the activity of ethionamide, was determined. This concentration was denoted EC50.

[1] = Measurement of the solubility; format: physicochemical; conditions: aqueous buffer, kinetic from dmso stock; PBS at pH 7.4, 24 h at RT, LC-MS, ratio of mass signals PBS/MeOH
Protocol: Measurement of the Solubility
40 μL of a solution at 10 mM in DMSO of the sample was added to 1.96 mL MeOH or PBS at pH 7.4. The samples were then agitated during 24 h at RT, centrifuged during 5 min and then filtrated on filters of 0.45 μm size. 20 μL of each solution were then added to 180 μL MeOH and then analyzed by LC-MS. The solubility was determined as ratio of the surfaces of the mass signals PBS/MeOH.

SMILES | EC50 (M. tuberculosis; Table III) | further results
O=C(CCC(F)(F)F)N1CCC(c2cccc(Cl)c2)CC1 [BDM_70668] | 0.5 nM | 
O=C(CCC(F)(F)F)N1CCC(c2ccc(F)cc2)CC1 [BDM_44751] | 1 nM | EC50 (M. tuberculosis; Table I): 1 nM; solubility at 24 h [1]: 51.9 µg/mL
CC(C)CCC(=O)N1CCN(c2ccc(F)cc2)CC1 [BDM_44821] | 100 nM | EC50 (M. tuberculosis; Table II): 100 nM
O=C(CCC(F)(F)F)N1CCC(c2ccccc2Cl)CC1 [BDM_70534] | 110 nM | 
CC(C)CCC(=O)N1CCN(c2ccccc2)CC1 [BDM_44810] | 60 nM | EC50 (M. tuberculosis; Table II): 60 nM
O=C(CCCC(F)(F)F)N1CCN(c2ccc(F)cc2)CC1 [BDM_44820] | 140 nM | 
COc1ccccc1C1CCN(C(=O)CCC(F)(F)F)CC1 [BDM_70540] | 140 nM | 
O=C(CCC(F)(F)F)N1CCC(c2ccncc2)CC1 [BDM_70542] | 330 nM | 
O=C(CCC(F)(F)F)N1CCC(c2ccc(O)cc2)CC1 [BDM_45572] | 280 nM | 
Cc1ccc(C2CCN(C(=O)CCC(F)(F)F)CC2)cc1 [BDM_70663] | 26 nM | 
Cc1ccccc1C1CCN(C(=O)CCC(F)(F)F)CC1 [BDM_70665] | 35 nM | 
O=C(CCC(F)(F)F)N1CCC(c2ccc(C(F)(F)F)cc2)CC1 [BDM_70667] | 300 nM | 
O=C(CCCC(F)(F)F)N1CCN(c2ccc(Cl)cc2)CC1 [BDM_44812] | < 20 nM | 
O=C(CCCC(F)(F)F)N1CCC(c2ccccc2)CC1 [BDM_44648] | < 10 nM | EC50 (M. tuberculosis; Table I): < 10 nM; solubility at 24 h [1]: 42.9 µg/mL
O=C(CCC(F)(F)F)N1CCC(c2ccc(F)cc2)C1 (stereo not shown) [BDM_70717] | 9 nM | EC50 (M. tuberculosis; Table I): 9 nM
O=C(CCC(F)(F)F)N1CCN(c2ccccc2)CC1 [BDM_44808] | 10 nM | 
O=C(CCC(F)(F)F)N1CCN(c2ccc(F)cc2)CC1 [BDM_44819] | 27 nM | 
O=C(CCC(F)(F)F)N1CCC(Cc2ccccc2)CC1 [BDM_70670] | 54 nM | 

SMILES | EC50 (M. tuberculosis; Table III) | further results
O=C(CCCC(F)(F)F)N1CCN(c2ccccc2)CC1 [BDM_44809] | 70 nM | 
COc1ccc(C2CCN(C(=O)CCC(F)(F)F)CC2)cc1 [BDM_70537] | 2 nM | 
CC(C)CCC(=O)N1CCC(c2ccccc2)CC1 [BDM_44649] | 60 nM | EC50 (M. tuberculosis; Table II): 60 nM
O=C(CCC(F)(F)F)N1CCC(c2ccccc2C(F)(F)F)CC1 [BDM_70536] | 770 nM | 
COc1cccc(C2CCN(C(=O)CCC(F)(F)F)CC2)c1 [BDM_70538] | 140 nM | 
O=C(CCC(F)(F)F)N1CCC(c2ccc(Cl)c(Cl)c2)CC1 [BDM_70716] | 25 nM | 
O=C(CCC(F)(F)F)N1CCC(c2ccccc2F)CC1 [BDM_70666] | 1 nM | 
O=C(CCC(F)(F)F)N1CCC(c2ccccc2)CC1 [BDM_44647] | 0.8 nM | EC50 (M. tuberculosis; Table I): 0.8 nM; solubility at 24 h [1]: 50.4 µg/mL
O=C(CCC(F)(F)F)N1CCN(c2ccc(Cl)cc2)CC1 [BDM_44811] | 10 nM | 
CC(C)CCC(=O)N1CCN(c2ccc(Cl)cc2)CC1 [BDM_44813] | 100 nM | EC50 (M. tuberculosis; Table II): 100 nM
O=C(CCC(F)(F)F)N1CCN(Cc2ccccc2)CC1 [BDM_70719] | 1100 nM | 
O=C(CCC(F)(F)F)N1CCC(c2c(F)cc(F)cc2F)CC1 [BDM_71148] | 1 nM | 
O=C(CCC(F)(F)F)N1CCC(c2cccc(F)c2)CC1 [BDM_70531] | 0.8 nM | 
O=C(CCC(F)(F)F)N1CCC(c2ccc(Cl)cc2)CC1 [BDM_70535] | 120 nM | 
O=C(CCC(F)(F)F)N1CCN(c2ccc(F)cc2F)CC1 [BDM_70669] | 21 nM | 
Cc1cccc(C2CCN(C(=O)CCC(F)(F)F)CC2)c1 [BDM_70664] | 1 nM | 
O=C(CCC(F)(F)F)N1CCC(c2cccc(C(F)(F)F)c2)CC1 [BDM_70546] | 1 nM | 
